Laboratory results taken from patent US20230303495A9, “PYRIDINE OXYNITRIDE, PREPARATION METHOD THEREFOR AND USE THEREOF” (Orion Corporation, priority 2019, published 2023).

Molecular target: T1, NaV1.8 (Homo sapiens, UniProt Q9Y5Y9)
T1 construct: expressed in transfected cells
Test: Whole-cell patch clamp blocking activity against NaV1.8 channel current
Type: cell-based
Details: for Blocking rate (%) @100 nM: against NaV1.8 at 100 nM, CHO cell line stably expressing Nav1.8, patch clamp; for IC50: CHO cell line stably expressing Nav1.8 (SCN10A: NM_006514), patch clamp
Experimental: 1. Test method: patch clamp technique was used to detect the influence of compounds on voltage-gated sodium channel (NaV) 1.1-1.8 subtype current
1) The specific information of the CHO cell line stably expressing the Nav1.8 channel was as follows: SCN10A: NM_006514
2) Cells were cultured in HAM'S/F-12 medium containing 10% fetal bovine serum and 10 μg/mL Blasticidin, 200 μg/mL Hygromycin B and 100 μg/mL Zeocin, culture temperature was 37° C. and the concentration of CO2 was 5%.
5) Patch clamp detection, before the experiment, the cells were separated with 0.25%—trypsin EDTA, inoculated into a 24 well plate with a density of 8*10^3 cells per well (final volume: 500 μL), tetracycline was added thereto, and experimental test was performed on the next day.
1) Extracellular fluid: 140 mM NaCl, 3.5 mM KCl, 2 mM CaCl2, 10 mM HEPES, 1.25 mM NaH2PO4, 1 mM MgCl2, 10 mM Glucose, pH=7.4 (NaOH).
2) Intracellular fluid: 50 mM CsCl, 10 mM NaCl, 10 mM HEPES, 20 mM EGTA, 60 mM CsF, pH=7.2 (CsOH).
The voltage stimulation scheme of whole-cell patch clamp recording of Nav channel current was as follows: first the membrane potential of the cell was clamped at −130 mV, and then the voltage was stepped to −40 mV or −20 mV at 10 mv step intervals for 8 s. The clamping voltage was maintained at −120 mV, and data was collected repeatedly every 20 seconds. The peak amplitude of its inward current was measured to determine its half-inactivation voltage.
The cell clamping potential was set at −120 mV. The resting and half-inactivation inhibition of sodium current was measured using double pulse mode. The double pulse mode was completed by two 0 mV depolarization test pulses (TP1 and TP2) lasting 50 ms. The conditional voltage between the two depolarization pulses was set near the half-inactivation voltage (lasting 8 s). […] The data acquisition was repeated at an interval of 20 s and the current peak was measured at the two test pulses.
When the current of the Nav channel recorded by the whole cell was stable, the drug was administered, after each drug concentration was applied for 5 minutes (or the current was stable), the next concentration would be tested, and multiple concentrations would be tested for each test compound. The cover glass covered with cells was placed in the recording bath of an inverted microscope, the test compound and the external liquid without compound flowed through the recording chambers in turns from low concentration to high concentration by gravity perfusion, so as to act on the cells, in the recording, the liquid exchange was carried out by vacuum pump. The current detected in each cell in the compound-free external fluid served as its own control group. Multiple cells were detected independently and repeatedly. All electrophysiological experiments were performed at room temperature.
First, the current after the action of each drug concentration and the blank control current were normalized, and then the blocking rate corresponding to each drug concentration was calculated. The mean and standard error were calculated for each concentration, and all the above values were calculated by Microsoft Excel 2013. In addition, the half-inhibitory concentration of each compound was calculated by IGOR software with the following equation: retardation rate=1/[1+(IC50/c)^h].
The dose-dependent effect was nonlinearly fitted with the above equation, wherein, c refers to the drug concentration, IC50 was the half inhibitory concentration, and h refers to the Hill coefficient. The curve fitting and the calculation of IC50 were completed by IGOR software (software version: 6.0.1.0).

T1 sequence (Q9Y5Y9 whole entry): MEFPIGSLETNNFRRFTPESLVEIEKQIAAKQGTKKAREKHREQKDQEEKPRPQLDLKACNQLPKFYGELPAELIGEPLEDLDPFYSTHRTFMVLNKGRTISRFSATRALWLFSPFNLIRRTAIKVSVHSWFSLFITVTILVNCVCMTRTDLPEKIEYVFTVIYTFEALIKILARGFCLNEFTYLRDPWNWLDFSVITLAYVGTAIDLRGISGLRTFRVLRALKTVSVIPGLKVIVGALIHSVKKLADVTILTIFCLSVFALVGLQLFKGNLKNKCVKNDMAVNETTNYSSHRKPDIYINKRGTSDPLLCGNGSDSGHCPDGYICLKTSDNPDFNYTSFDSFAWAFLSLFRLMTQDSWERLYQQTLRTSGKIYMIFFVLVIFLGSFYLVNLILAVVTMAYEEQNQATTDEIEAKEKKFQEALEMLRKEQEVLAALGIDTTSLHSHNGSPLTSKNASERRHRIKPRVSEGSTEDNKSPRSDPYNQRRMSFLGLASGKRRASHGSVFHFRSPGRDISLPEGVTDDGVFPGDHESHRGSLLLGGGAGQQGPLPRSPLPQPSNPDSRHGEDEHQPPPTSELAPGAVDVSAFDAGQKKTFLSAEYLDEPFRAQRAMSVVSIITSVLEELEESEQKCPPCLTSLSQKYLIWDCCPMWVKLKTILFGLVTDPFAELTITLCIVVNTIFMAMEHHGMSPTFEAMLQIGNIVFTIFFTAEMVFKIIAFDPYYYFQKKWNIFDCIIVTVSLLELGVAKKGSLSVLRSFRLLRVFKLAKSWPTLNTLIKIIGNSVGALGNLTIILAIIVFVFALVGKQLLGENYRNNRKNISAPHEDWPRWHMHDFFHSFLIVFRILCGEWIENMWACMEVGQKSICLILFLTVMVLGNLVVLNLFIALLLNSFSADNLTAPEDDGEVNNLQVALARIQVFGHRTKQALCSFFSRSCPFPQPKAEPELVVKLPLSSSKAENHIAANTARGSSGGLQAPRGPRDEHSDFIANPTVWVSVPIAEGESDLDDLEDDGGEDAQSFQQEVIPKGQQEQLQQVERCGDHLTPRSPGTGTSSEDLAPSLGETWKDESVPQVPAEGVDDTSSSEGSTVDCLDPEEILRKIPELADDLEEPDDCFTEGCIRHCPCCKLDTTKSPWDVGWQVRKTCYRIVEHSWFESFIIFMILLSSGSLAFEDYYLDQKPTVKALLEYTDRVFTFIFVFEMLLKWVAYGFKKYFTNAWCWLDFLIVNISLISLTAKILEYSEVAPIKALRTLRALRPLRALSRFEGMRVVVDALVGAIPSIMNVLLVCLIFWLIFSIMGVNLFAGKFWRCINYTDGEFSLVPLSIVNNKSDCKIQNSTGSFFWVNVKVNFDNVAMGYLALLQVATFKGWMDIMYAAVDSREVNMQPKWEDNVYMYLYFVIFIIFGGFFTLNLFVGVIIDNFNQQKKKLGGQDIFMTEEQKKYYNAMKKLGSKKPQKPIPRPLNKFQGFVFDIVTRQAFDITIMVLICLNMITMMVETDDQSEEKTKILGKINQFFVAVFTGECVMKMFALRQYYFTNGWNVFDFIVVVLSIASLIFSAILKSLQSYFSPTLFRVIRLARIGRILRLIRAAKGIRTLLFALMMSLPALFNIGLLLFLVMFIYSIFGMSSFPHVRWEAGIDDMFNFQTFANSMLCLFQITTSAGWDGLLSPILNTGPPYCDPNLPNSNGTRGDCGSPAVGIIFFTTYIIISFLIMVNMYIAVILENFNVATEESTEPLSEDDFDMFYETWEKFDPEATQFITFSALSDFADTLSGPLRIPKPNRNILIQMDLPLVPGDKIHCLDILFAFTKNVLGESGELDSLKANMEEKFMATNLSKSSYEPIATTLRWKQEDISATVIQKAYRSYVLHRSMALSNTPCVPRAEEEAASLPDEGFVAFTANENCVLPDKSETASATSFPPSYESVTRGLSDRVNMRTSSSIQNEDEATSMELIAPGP

Compound | Blocking rate (%) @100 nM [%] | IC50 [nM]
O=C(Nc1cc[n+]([O-])cc1)c1c(Oc2ccc(OC(F)(F)F)cc2)cc(Cl)c(Cl)c1F [Embodiment A100] | 97.60 | –
O=C(Nc1cc[n+]([O-])nc1)c1cc(Cl)c(Cl)cc1Oc1ccc(OC(F)(F)F)c(F)c1 [Embodiment A37] | – | 3.2
O=C(Nc1cc[n+]([O-])nc1)c1c(F)cc(C(F)(F)F)cc1Oc1ccc(OC(F)(F)F)cc1 [Embodiment A80] | – | 8.4
O=C(Nc1cc[n+]([O-])nc1)c1ccc(C(F)(F)F)cc1Oc1ccc(OC(F)(F)F)c(F)c1 [Embodiment A26] | 79.32 | –
Cc1cc(F)ccc1Oc1cc(C(F)(F)F)c(Cl)c(F)c1C(=O)Nc1ccc[n+]([O-])c1 [Embodiment A104] | 97.93 | –
Cc1cc(Oc2ccc(OC(F)(F)F)cc2)c(C(=O)Nc2ccc[n+]([O-])c2)cc1Cl [Embodiment A92] | 85.44 | –
O=C(Nc1ccc[n+]([O-])c1)c1c(Oc2ccc(F)cc2Cl)ccc(C(F)(F)F)c1F [Embodiment A50] | 79.66 | –
O=C(Nc1ccc[n+]([O-])c1)c1c(Oc2ccc(OC(F)(F)F)cc2)ccc(C(F)(F)C(F)(F)F)c1F [Embodiment A18] | 96.02 | –
O=C(Nc1cc[n+]([O-])nc1)c1c(Oc2ccc(OC(F)F)cc2)ccc(C(F)(F)F)c1F [Embodiment A72] | 85.63 | –
O=C(Nc1ccc[n+](O)c1)c1c(Oc2ccc(OC(F)(F)F)cc2Cl)ccc(C(F)(F)F)c1F [Embodiment A54] | 94.99 | –
O=C(Nc1ccc[n+]([O-])c1)c1c(Oc2ccc(OC(F)(F)F)cc2)ccc(I)c1F [Embodiment A73] | – | 3.2
O=C(Nc1cc[n+]([O-])cc1)c1c(Oc2ccc(OC(F)(F)F)cc2)cnc(C(F)(F)F)c1Cl [Embodiment A102] | 82.71 | –
O=C(Nc1ccc[n+]([O-])c1)c1c(Oc2ccc(OCC(F)(F)F)cc2)ccc(Br)c1Cl [Embodiment A31] | 88.88 | –
Cc1cc(F)ccc1Oc1cc(C(F)(F)F)c(Br)cc1C(=O)Nc1ccc[n+]([O-])c1 [Embodiment A107] | 95.60 | –
O=C(Nc1cc[n+]([O-])cc1)c1c(Oc2ccc(OC(F)(F)F)cc2)ccc(C(F)(F)F)c1F [Embodiment A44] | 77.61 | –
Cc1cc(OC(F)(F)F)ccc1Oc1ccc(C(F)(F)F)c(F)c1C(=O)Nc1ccc[n+](O)c1 [Embodiment A51] | – | 2.7
O=C(Nc1ccc[n+]([O-])c1)c1cc(Cl)c(Br)cc1Oc1ccc(OC(F)(F)F)cc1 [Embodiment A96] | 88.78 | –
COc1cc(F)ccc1Oc1cc(C(F)(F)F)c(Cl)cc1C(=O)Nc1ccc[n+]([O-])c1 [Embodiment A85] | – | 1.7
O=C(Nc1cc[n+]([O-])nc1)c1c(Oc2ccc(OC(F)(F)F)cc2)ccc(Br)c1F [Embodiment A33] | – | 4.6
O=C(Nc1ccc[n+]([O-])c1)c1cc(Cl)c(OC(F)(F)F)cc1Oc1ccc(OC(F)(F)F)cc1 [Embodiment A91] | 92.81 | –
O=C(Nc1ccc[n+]([O-])c1)c1cc(Cl)c(C(F)(F)F)cc1Oc1ccc(F)cc1C1CC1 [Embodiment A106] | – | 3
O=C(Nc1ccn[n+]([O-])c1)c1c(Oc2ccc(OC(F)(F)F)cc2)ccc(C(F)(F)F)c1F [Embodiment A45] | 78.46 | –
O=C(Nc1ccc[n+]([O-])c1)c1cc(C(F)(F)F)c(C2CC2)cc1Oc1ccc(OC(F)(F)F)cc1 [Embodiment A97] | 86.65 | –

More lines, now with the values ahead:

Blocking rate (%) @100 nM [%] | IC50 [nM] | Compound
98.42 | – | COc1c(Cl)c(C(F)(F)F)cc(Oc2ccc(F)cc2C)c1C(=O)Nc1ccc[n+]([O-])c1 [Embodiment A105]
– | 2.9 | O=C(Nc1ccn[n+]([O-])c1)c1c(Oc2ccc(OC(F)(F)F)cc2)ccc(C(F)(F)F)c1Cl [Embodiment A28]
– | 0.64 | O=C(Nc1cc[n+]([O-])nc1)c1c(Oc2ccc(OC(F)(F)F)cc2)ccc(C(F)(F)F)c1Cl [Embodiment A27]
76.10 | – | O=C(Nc1cc[n+]([O-])c(Cl)c1)c1c(Oc2ccc(OC(F)(F)F)cc2)ccc(C(F)(F)F)c1F [Embodiment A43]
87.14 | – | O=C(Nc1ccc[n+](O)c1)c1c(F)cc(OC(F)(F)F)cc1Oc1ccc(OC(F)(F)F)cc1 [Embodiment A20]
– | 0.08 | COc1cc(F)ccc1Oc1cc(C(F)(F)F)c(Cl)c(F)c1C(=O)Nc1ccc[n+]([O-])c1 [Embodiment A86]
99.42 | – | O=C(Nc1ccc[n+]([O-])c1)c1c(Oc2ccc(F)cc2C2CC2)cc(C(F)(F)F)c(Cl)c1F [Embodiment A111]
85.77 | – | O=C(Nc1ccc[n+](O)c1)c1c(Oc2ccc(OCC(F)(F)F)cc2)ccc(C(F)(F)F)c1F [Embodiment A53]
96.92 | – | O=C(Nc1ccc[n+]([O-])c1)c1cc(Cl)c(C(F)(F)F)cc1Oc1ccc(F)cc1OC1CC1 [Embodiment A108]
– | 3 | O=C(Nc1cc[n+]([O-])nc1)c1cc(Cl)c(Cl)cc1Oc1ccc(OC(F)(F)F)cc1 [Embodiment A35]
80.75 | – | O=C(Nc1ccc[n+]([O-])c1)c1c(Oc2ccc(OC(F)(F)F)cc2F)ccc(C(F)(F)F)c1F [Embodiment A52]
88.87 | – | O=C(Nc1ccc[n+]([O-])c1)c1c(Oc2ccc(OC(F)(F)F)cc2)ccc(Cl)c1F [Embodiment A75]
– | 7.3 | O=C(Nc1ccn[n+]([O-])c1)c1cc(Cl)c(Cl)cc1Oc1ccc(OC(F)(F)F)c(F)c1 [Embodiment A38]
87.40 | – | O=C(Nc1ccn[n+]([O-])c1)c1cc(Cl)c(Cl)cc1Oc1ccc(OC(F)(F)F)cc1 [Embodiment A36]
96.55 | – | COc1cc(Oc2ccc(OC(F)(F)F)cc2)c(C(=O)Nc2ccc[n+]([O-])c2)c(F)c1C(F)(F)F [Embodiment A78]
89.79 | – | O=C(Nc1ccc[n+](O)c1)c1c(Oc2ccc(OC(F)(F)F)c(F)c2)cnc(C(F)(F)F)c1F [Embodiment A62]
97.04 | – | O=C(Nc1cc[n+]([O-])nc1)c1c(Oc2ccc(OC(F)(F)F)cc2)ccc(I)c1F [Embodiment A23]
85.08 | – | O=C(Nc1ccc[n+]([O-])c1)c1c(Oc2ccc(OC(F)F)cc2)ccc(C(F)(F)F)c1F [Embodiment A16]
– | 7.4 | COc1cc(F)ccc1Oc1cc(Cl)c(Cl)cc1C(=O)Nc1ccc[n+]([O-])c1 [Embodiment A5]
93.18 | – | O=C(Nc1cc[n+]([O-])nc1)c1c(Oc2ccc(OC(F)(F)F)cc2)cnc(C(F)(F)F)c1Cl [Embodiment A65]
91.28 | – | O=C(Nc1ccn[n+]([O-])c1)c1c(Oc2ccc(OC(F)(F)F)cc2)ccc(I)c1F [Embodiment A24]
98.47 | – | O=C(Nc1ccc[n+]([O-])c1)c1c(Oc2ccc(OCC(F)(F)F)cc2)cc(Cl)c(Cl)c1F [Embodiment A101]
84.98 | – | O=C(Nc1cc[n+]([O-])nc1)c1c(Oc2ccc(OC(F)(F)F)c(F)c2)cnc(C(F)(F)F)c1F [Embodiment A83]
– | 3.6 | O=C(Nc1ccc[n+](O)c1)c1c(Oc2ccc(OC(F)(F)F)cc2)ccc(C(F)(F)F)c1F [Embodiment A42]
98.75 | – | Cc1cc(F)ccc1Oc1cc(C(F)(F)F)c(Br)c(F)c1C(=O)Nc1ccc[n+]([O-])c1 [Embodiment A110]
